Several values for one entry are separate records, joined by “and”; a condition that tells them apart may be missing. Identical values can stand only once. Like-named read-outs stand apart in the source and are kept apart here.
How the values were obtained:
[1] = In vitro flags for victim and perpetrator properties conferring DDI liability; type: in vitro ADME, human; details: in vitro flag, mainly based on in vitro determinations
[2] = cited from earlier work; for Log D pH 7.4: lumefantrine: ACD labs value, ref Charman et al., 2020 1
[3] = cited from earlier work
[4] = PBPK input, cited from earlier work
[5] = cited from earlier work; for CL renal: PBPK input, ref amodiaquine, DEAQ Winstanley et al., atovaquone Rolan et al., 1997 14, azithromycin Lalak et al., 1993 23, carboxyprimaquine Mihaly et al., 1987 29, DHA EMA Website, 44, mefloquine Schwartz et al., 1982 57, primaquine White, 1985 62, pyrimeth
[6] = PBPK simulation of drug-drug interactions (Simcyp V19); parameters: species or system human; details: ratio of simulated to clinically observed AUC ratio; DDI of the respective line of Table S3
Text: Here, we provide three example applications where the available PBPK models were used to address questions relating to DDI assessment. […] Additional simulation methods are provided in Appendix S1.
All simulations, including the ones performed for the applications, were run using Version 19 of the Simcyp population-based PBPK simulator (Simcyp (Certara), Sheffield, UK) and unless stated otherwise, input parameters for all drugs are as specified (Supplementary Information Table S1). All simulations were run using ten virtual trials that were matched as closely as possible to the clinical study volunteers in terms of the number of subjects, their age, the proportion of males/females and according to the same study design.

[7] = cited from earlier work; remark: listed apart in the source
Caco-2 cells = details: cited from earlier work
[8] = ref Charman et al., 2020 1; cited from earlier work
[9] = Hepatic / HLM intrinsic clearance, enzyme not defined; details: human
[10] = 1987 9, 1985 26, chloroquine Walker et al., doxycycline Raghuram et al., 1982 48, Nguyen et al., 1989 49, proguanil Jeppesen et al., 1997 34
[11] = midazolam 7.5 mg QD + piperaquine 960 mg QD, ref Eurartesim - EMA Website, 12
[12] = midazolam 15 mg SD (Day 3) + azithromycin 500 mg QD (3 Days), ref Yeates et al., 1996 6
[13] = midazolam 15 mg SD (Day 3) + azithromycin 500 mg QD (3 Days), ref Zimmermann et al., 1996 7
[14] = midazolam 15 mg SD (Day 5) + azithromycin 500 mg QD (Day 1), 250 mg (Days 2-5), ref Backman et al., 1995 5

## CC[C@H]1OC(=O)[C@H](C)[C@@H](O[C@H]2C[C@@](C)(OC)[C@@H](O)[C@H](C)O2)[C@H](C)[C@@H](O[C@@H]2O[C@H](C)C[C@H](N(C)C)[C@H]2O)[C@](C)(O)C[C@@H](C)CN(C)[C@H](C)[C@@H](O)[C@]1(C)O [Azithromycin, azithromycin]
[1]
  Risk as a perpetrator: CYP3A4 time‐dependent inhibitor
  Risk as a victim: Cleared by biliary excretion
[2]; ref PubChem/DrugBank
  Log P: 4.02
[3]; in vivo, 500 mg
  AUC Obs: 1.77 µg·h/mL
  Cmax Obs: 410 ng/mL
[4]; ref atovaquone Mepron Prescribing Information, 2008, Nixon et al., 2013 13, Rolan et al., 1997 14, azithromycin Foulds et al., 1990 20, chloroquine Ofori-Adjei et al., 1986 27, Walker et al., 1983 28, DHA Batty et al., 2004 41 (healthy volunteers), lumefantrine CDER submission 22-269, proguanil Wattanagoon et al., 1987 63, tafenoquine Dow et al., 2020 84
  fu: 0.69
[5]; [10]
  CL renal: 8.67 L/h

## COc1cc(NC(C)CCC(=O)O)c2ncccc2c1 (stereo not shown) [Carboxyprimaquine, carboxyprimaquine]
[3]; 15 mg QD (Day 14), 0-inf, ref Ward et al., 1985 14
  AUC Obs: 24.7 µg·h/mL
[3]; 15 mg QD (Day 14), ref Ward et al., 1985 14
  Cmax Obs: 1240 ng/mL
[3]; 15 mg SD, 0-24 h, ref Mihaly et al., 1985 12
  AUC Obs: 15.1 µg·h/mL
[3]; 15 mg SD, 0-inf, ref Ward et al., 1985 14
  AUC Obs: 14.2 µg·h/mL
[3]; 15 mg SD, ref Ward et al., 1985 14
  Cmax Obs: 736 ng/mL
[3]; 30 mg SD, 0-inf, ref Hanboonkunupakarn et al., 2014 13
  AUC Obs: 44 µg·h/mL
[3]; 30 mg SD, 0-inf, ref Jittamala et al., 2015 15
  AUC Obs: 47.2 µg·h/mL
[3]; 30 mg SD, ref Hanboonkunupakarn et al., 2014 13
  Cmax Obs: 959 ng/mL
[3]; 30 mg SD, ref Jittamala et al., 2015 15
  Cmax Obs: 1040 ng/mL
[3]; 45 mg SD, 0-24 h, ref Mihaly et al., 1985 12
  AUC Obs: 39.9 µg·h/mL

## C[C@H]1c2cccc(O)c2C(=O)C2=C(O)[C@]3(O)C(=O)C(C(N)=O)=C(O)[C@@H](N(C)C)[C@@H]3[C@@H](O)[C@@H]21 [Doxycycline, doxycycline]
[1]
  Risk as a perpetrator: None identified
  Risk as a victim: Cleared by renal and biliary excretion
[2]
  Log D pH 7.4: -0.2
[3]; 100 mg SD, 0-inf, first line, ref Malmborg, 1984 25
  AUC Obs: 40.1 µg·h/mL
[3]; 100 mg SD, 0-inf, ref Grahnen et al., 1994 24
  AUC Obs: 29.9 µg·h/mL
[3]; 100 mg SD, 0-inf, second line, ref Malmborg, 1984 25
  AUC Obs: 37.4 µg·h/mL
[3]; 100 mg SD, ref Grahnen et al., 1994 24
  Cmax Obs: 1750 ng/mL
[3]; 100 mg q24h, 312-408 h, ref Binh et al., 2009 28
  AUC Obs: 37.3 µg·h/mL
[3]; 100 mg q24h, ref Binh et al., 2009 28
  Cmax Obs: 3260 ng/mL
[3]; 200 mg SD, 0-inf, ref Wojcicki et al., 1985 26
  AUC Obs: 40.9 µg·h/mL
[3]; 200 mg SD, ref Wojcicki et al., 1985 26
  Cmax Obs: 2610 ng/mL
[3]; 200 mg q24h, malaria-infected, 0-24 h, ref Newton et al., 2005 27
  AUC Obs: 32.0 µg·h/mL
[3]; 200 mg q24h, malaria-infected, 144-168 h, ref Newton et al., 2005 27
  AUC Obs: 48.6 µg·h/mL
[3]; 200 mg q24h, malaria-infected, window 0-24 h, ref Newton et al., 2005 27
  Cmax Obs: 3170 ng/mL
[3]; 200 mg q24h, malaria-infected, window 144-168 h, ref Newton et al., 2005 27
  Cmax Obs: 4440 ng/mL
[4]; ref Charman et al., 2020 1
  fu: 0.23
[5]; [10]
  CL renal: 0.87 L/h
[5]; clinically observed, ref atovaquone Lavelle et al., 1994 17, chloroquine Walker et al., 1987 29, Gustafsson et al., 1983 30, doxycycline Raghuram et al., 1982 48, Nguyen et al., 1989 49, primaquine Mihaly et al., 1985 26, quinine White et al., 1983 77, Paintaud et al., 1993 78
  CL IV: 2.77 L/h

## Cc1ncc2n1-c1ccc(Cl)cc1C(c1ccccc1F)=NC2 [Midazolam, midazolam]
[6]
  AUC ratios Sim/Obs: 0.91 and 0.83 and 1.22
[7]; [11]
  AUC ratio Obs: ≤ 2 fold
  Cmax ratio Obs: ≤ 2 fold
[7]; [12]
  AUC ratio Obs: 1.19
  Cmax ratio Obs: 1.52
[7]; [13]
  AUC ratio Obs: 1.27
  Cmax ratio Obs: 1.29
[7]; [14]
  AUC ratio Obs: 0.87
  Cmax ratio Obs: 0.66

## CC(C)NCC(O)COc1cccc2ccccc12 (stereo not shown) [Propranolol, propranolol]
Caco-2 cells; Caco-2
  Papp A-B of calibrator: 72 10-6 cm/s

## C=C[C@H]1C[N@@]2CC[C@H]1C[C@H]2[C@H](O)c1ccnc2ccc(OC)cc12 [Quinine, quinine]
[1]
  Risk as a perpetrator: CYP2D6 inhibitor
  Risk as a victim: Substrate of CYP3A4
[3]; in vivo, 550 mg
  AUC Obs: 50.89 µg·h/mL
  Cmax Obs: 2848 ng/mL
[8]
  B:P: 0.67

## COc1ncnc(NS(=O)(=O)c2ccc(N)cc2)c1OC [Sulfadoxine, sulfadoxine]
[1]
  Risk as a perpetrator: None identified
  Risk as a victim: Renally cleared
[9]
  fm additional / undefined metabolism: 10%
[2]
  Log D pH 7.4: -0.78
[3]; 500 mg SD, Caucasian, 0-inf, ref Weidekamm et al., 1982 35
  AUC Obs: 14168 µg·h/mL
[3]; 500 mg SD, Caucasian, ref Weidekamm et al., 1982 35
  Cmax Obs: 63200 ng/mL
[3]; 500 mg SD, South-East Asian, 0-inf, ref Sarikabhuti et al., 1988 44
  AUC Obs: 26689 µg·h/mL
[3]; 500 mg SD, South-East Asian, ref Sarikabhuti et al., 1988 44
  Cmax Obs: 77000 ng/mL
[3]; 500 mg weekly (20 weeks), 3360-3528 h, ref Schwartz et al., 1987 32
  AUC Obs: 12465 µg·h/mL
[3]; 500 mg weekly (20 weeks), ref Schwartz et al., 1987 32
  Cmax Obs: 121000 ng/mL
[3]; 1500 mg SD, 0-inf, ref Karunajeewa et al., 2009 43
  AUC Obs: 33284 µg·h/mL
[3]; 1500 mg SD, ref Karunajeewa et al., 2009 43
  Cmax Obs: 142000 ng/mL
[4]; ref Charman et al., 2020 1
  fu: 0.036
Caco-2 cells; calibrated against propranolol, plasma as medium for atovaquone and piperaquine, ref Charman et al., 2020 1
  Caco-2 (Papp A-B): 15 10-6 cm/s
[5]; [10]
  CL renal: 0.035 L/h
[5]; clinically observed oral (in vivo) clearance, pyronaridine: blood, ref amodiaquine Winstanley et al., 1987 9, DEAQ Akande et al., 2015 8, Scarsi et al., 2014 35, Tarning et al., 2012 36, Orrell et al., 2008 37, DHA Na-Bangchang et al., 2004 42, lumefantrine Lefevre et al., 2002 52, Hoglund et al., 2015 53, mefloquine Charles et al., 2007 56, proguanil Jeppesen et al., 1997 34, pyronaridine Jittama
  CL PO: 0.039 L/h
[5]; in vivo
  fe (fraction excreted unchanged in urine): 90%
